Measurements from paper PMC6365201 (Organic & biomolecular chemistry, 2019).

Molecular target: FrbG (Streptomyces rubellomurinus, UniProt Q0ZQ42, H221A)
Test: NADPH oxidation at […] nm
Assay type: biochemical
Settings: 500 μM substrate; 200 μM NADPH; 5 μM enzyme; 50 mM HEPES

Chain of FrbG (Q0ZQ42 whole entry H221A): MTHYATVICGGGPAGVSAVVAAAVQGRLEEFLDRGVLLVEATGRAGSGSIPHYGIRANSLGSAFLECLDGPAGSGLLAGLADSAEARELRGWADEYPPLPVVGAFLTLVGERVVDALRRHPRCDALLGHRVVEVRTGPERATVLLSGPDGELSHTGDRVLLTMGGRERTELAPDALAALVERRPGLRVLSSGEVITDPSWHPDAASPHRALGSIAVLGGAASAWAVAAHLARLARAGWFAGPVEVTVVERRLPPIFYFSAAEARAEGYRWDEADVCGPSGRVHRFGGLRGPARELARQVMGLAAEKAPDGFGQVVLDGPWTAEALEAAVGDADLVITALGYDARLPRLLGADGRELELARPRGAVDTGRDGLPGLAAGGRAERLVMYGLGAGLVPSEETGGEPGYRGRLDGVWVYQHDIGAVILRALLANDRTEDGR

SMILES: NCCCP(=O)(O)OP(=O)(O)OC[C@H]1O[C@@H](n2ccc(N)nc2=O)[C@H](O)[C@@H]1O [compound 4, CMP-5’-3APn]
- NADPH oxidation at 340 nm: FrbG-H221A had significantly higher rates for both NADPH oxidation and substrate hydroxylation
